# Experimental data from US20060014712A1, “Controlled delivery of therapeutic compounds” (CeMines, Inc., priority 2004, published 2006).
# Columns and labels:
# [1] = system: Dct/Trp2 promoter; test: Transient CAT assay, Dct/Trp2 proximal promoter-CAT construct in SK-MEL-28; assay type: cell-based, human; conditions: CPP concentration 10 μM
# Description: (§1) SOX10 and MITF interact with the proximal promoter of Dct/Trp2 gene and induces its activity (Ludwig A. et al., FEBS Lett. 556 (1-3):236-244 (2004)). Thus, a Dct/Trp2 proximal promoter reporter construct was used to analyze effect of mimicking peptides on promoter activity using transient CAT assay.
# (§2) Methods. Human melanoma cell lines SK-MEL-28 and WM 266-4 were obtained from the American Tissue Culture Collection (ATCC) and were cultured according to recommendations of ATCC (DMEM, 10% FCS, penicillin+streptomycin). Dct/Trp2 proximal promoter-CAT construct (Ludwig et al., supra) was used in all experiments.
# (§3) Cells were transfected by using FuGene reagent (Roche Molecular Biochemicals) according to manufacturer's instructions. Freeze-thaw lysates of cells collected 48 h after the transfection were assayed for CAT activity as described (Pothier, F. et al., DNA Cell Biol. 11(1):83-90 (1992)). At least two different DNA preparations were tested for each plasmid. To normalize the transfection efficiencies, cells were cotransfected with pON260 expressing β-galactosidase (Spaete, R. R. and Mocarski, E. S., J. Virol. 54(3):817-24 (1985); Spaete, R. R. and Mocarski, E. S., J. Virol. 56(1):13543 (1985)). All the CAT activities were normalized to total protein and β-galatosidase activity.
# (§4) Following transfection, cells were grown in 6 well plates, each treatment in triplicates. Peptides were added to the media and media was changed every day during the 7 day experiment. CPP concentration was 10 μM.
# [2] = system: B16; test: Apoptosis, Annexin V-Cy3 Apoptosis Kit; assay type: cell-based, mouse; conditions: CPP mimicking peptides, conc 10 µM
# Description: (§5) Methods. Human melanoma cell lines SK-MEL-28 and WM 2664 and mouse melanoma cell line B16 were obtained from the American Tissue Culture Collection (ATCC). Cells were cultured according to recommendations of ATCC (DMEM, 10% FCS, penicillin+streptomycin) and used in experiments after two passages in the laboratory. Cells were grown in 24 well plates, each treatment in triplicates. Cells were plated 16 hours prior treatments started. Peptides were added to the media, and media was changed every day during 7 day experiment. CPP concentration was 10 μM Apoptosis was analyzed using Biovision Annexin V-Cy3 Apoptosis Kit according to manufacturers protocols.
# [3] = system: B16; test: Cell counting after 7 day peptide treatment; assay type: cell-based, mouse; conditions: CPP mimicking peptides, conc 10 µM, start count 10
# Description: The ability to block interaction of MITF, SOX10 and STAT3 with active transcriptional complex and inhibit proliferation and stimulate apoptosis of melanoma cells were tested on human melanoma cell lines SK-MEL-28 and WM 266-4, and mouse melanoma cell line B16. Methods. Human melanoma cell lines SK-MEL-28 and WM 2664 and mouse melanoma cell line B16 were obtained from the American Tissue Culture Collection (ATCC). Cells were cultured according to recommendations of ATCC (DMEM, 10% FCS, penicillin+streptomycin) and used in experiments after two passages in the laboratory. Cells were grown in 24 well plates, each treatment in triplicates. Cells were plated 16 hours prior treatments started. Peptides were added to the media, and media was changed every day during 7 day experiment. […] Cells were precipitated and resuspended in 100 μl of PBS, and 5 μl were removed for counting
# [4] = system: Dct/Trp2 promoter; test: Transient CAT assay, Dct/Trp2 proximal promoter-CAT construct in WM 266-4; assay type: cell-based, human; conditions: CPP concentration 10 μM
# Description: as §1, §2, §3, §4
# [5] = system: B16; test: WST-1 test (mitochondrial activity); assay type: cell-based, mouse; conditions: CPP mimicking peptides, conc 10 µM, untreated = 1
# Description: as §5, with “CPP concentration was 10 μM Apoptosis was analyzed using Biovision Annexin V-Cy3 Apoptosis Kit according to manufacturers protocols.” left out
# [6] = system: Human keratinocytes; test: Cell counting after 7 day peptide treatment; assay type: cell-based; conditions: keratinocyte, modified peptides, conc 10 µM, start count 10
# Description: (§6) Methods. Human melanoma cell lines SK-MEL-28 and WM 266-4 were obtained from the American Tissue Culture Collection (ATCC) and were cultured according to recommendations of ATCC (DMEM, 10% FCS, penicillin+streptomycin). Human keratinocytes were obtained from Clonetics and cultured according to manufacturers protocol. Cells were used in experiments after two passages in the laboratory. Cells were grown in 24 well plates, each treatment in triplicates. Cells were plated 16 hours prior treatments started. Peptides were added to the media, and media was changed every day during 7 day experiment. CPP concentration was 10 μM. For cell counting, cells were trypsinized (0.25% Trypsin, 2 mM EDTA) in Ca, Mg free PBS. Cells were precipitated and resuspended in 100 μl of PBS, and 5 μl were removed for counting.
# [7] = system: Human keratinocytes; test: Apoptosis, Annexin V-Cy3 Apoptosis Kit; assay type: cell-based; conditions: keratinocyte, modified peptides, conc 10 µM
# [8] = system: B16 melanoma; test: Mouse tumor xenograft model, peptide membrane patch on skin melanoma; assay type: in vivo; conditions: patch immersed in 100 μM peptide solution, start = 100
# Description: The effect of modified mimicking peptides was analyzed by inducing melanomas in mouse skin by grafting suspension of melanoma cells. […] Tumor diameter was measured 1, 2, 3, 5, 7 days after treatmet started.
# Methods. Mouse melanoma cell line B16 was cultured as described above, and approximately 5×10^6 cells were injected subcutaneously into the left and right limbs of three C57BL/6JOIaHsd mice.
# Administration. Cellulose membrane was immersed in a solution of peptides (100 μM). Size of tumor was measured 1, 2, 3, 5 and 7 days following patch treatment. At the same time new patch was applied. All experiments were done in triplicates (3 animals per group).
# [9] = system: Human keratinocytes; test: WST-1 test (mitochondrial activity); assay type: cell-based; conditions: keratinocyte; modified peptides; conc 10 µM; untreated = 1
# Description: as §6, with “[…] WST-1 test” for “CPP concentration”, “performed to measure mitochondrial activity, which can also be used as a measure of” for “10 μM. For”, “number.” for “counting, cells were trypsinized (0.25% Trypsin, 2 mM EDTA) in Ca, Mg free PBS. Cells were precipitated and resuspended in 100 μl of PBS, and 5 μl were removed for counting.”
Sequence,Dct/Trp2 promoter activity (CAT assay) [1],Apoptosis 7 d/% [2] [%],Cell Count 7 d [3],Dct/Trp2 promoter activity (CAT assay) [4],WST-1 7 d [5],Cell Count 7 d [6],Apoptosis 7 d/% [7] [%],"tumor size change (%) 1 d ([8]; 1 d, B16 s.c. in C57BL/6 mice) [%]",tumor size change (%) 2 d ([8]; 2 d) [%],tumor size change (%) 3 d ([8]; 3 d) [%],tumor size change (%) 5 d ([8]; 5 d) [%],tumor size change (%) 7 d ([8]; 7 d) [%],WST-1 7 d [9]
RPKKRKVRRRFNINDRIKELGTLIPKSNDPDMRWN [MITF-int1],suppress Dct/Trp2 promoter activity significantly,16,63,suppress Dct/Trp2 promoter activity significantly,–,–,–,–,–,–,–,–,–
RPKKRKVRRRVKRPMNAFMVWAQAARRKLADQY [SOX10-int1],suppress Dct/Trp2 promoter activity significantly,12,72,suppress Dct/Trp2 promoter activity significantly,0.88,–,–,–,–,–,–,–,–
TTGGSSPQGLEAKRPKKRKVRRRFNINDRIKELGTLIPKSNDPDMRWN [MITF-int1M],–,–,–,–,–,38,5,112,135,150,170,210,0.93
